In patent US20030208035A1, “Antifungal and/or antibacterial peptides, preparation methods, compositions containing same and methods of treating mammals and/or plants” (priority 2000, published 2003):
In brackets after ≈: the same amount, converted by molar mass. Where two headings read alike, the source gives them in different places. Bridges are numbered along the chain shown (N, C = ends). Where no end group is shown, it is not given here.

How the values were obtained:
Candida albicans = assay: anti-Candida albicans growth inhibition test in liquid medium (96-well microplates); assay type: cell-based; conditions: for Activity C.a. (relative activity in relation to Ard1): fold relative to Ard1
Procedure: (§1) The anti-Candida albicans and anti-Aspergillus fumigatus activities of the different analogues were assessed using a growth inhibition test in liquid medium made in 96-well microplates. The activity of the purified peptides was tested for different dilutions of each peptide and was compared with those of heliomycin and Ard1 quantified under the same conditions.
The activity test was made directly on yeasts derived from a stock frozen at −80° C., in Sabouraud medium containing 15% glycerol. The density of the yeasts in the stock was adjusted to an optical density of 0.4 OD at 600 nm. After slow thawing at room temperature, the yeast suspension was reduced by dilution to an optic density of 1 mOD at 600 nm in Sabouraud medium, and 90 μl of this dilution were deposited in the wells of microtitration plates in the presence of 10 μl of sample to be tested. Control samples were systematically made in which 10 μl of sample were replaced by 10 μl of sterile water. Media sterility was controlled by incubating 10 μl sterile water in the presence of 90 μl of medium. The samples were incubated at 30° C. for 40 h under slight stirring and the antifungal activity was quantified by measuring optic density at 600 nm.

Aspergillus fumigatus = assay: anti-Aspergillus fumigatus growth inhibition test in liquid medium (96-well microplates); assay type: cell-based; conditions: for Activity A.f. (relative activity in relation to Ard1): fold relative to Ard1; for Activity A.f. (relative activity in relation to heliomycin): fold relative to heliomycin
Procedure: as §1
The spores of Aspergillus fumigatus were derived from a stock frozen at −80° C., containing 10^7 spores/ml in a 25% glycerol solution. After slow thawing at room temperature, the spores were placed in suspension in PDB culture medium (12 g Potato Dextrose Broth medium, per […] water). 10 μl of each sample were deposited in the wells of microtitration plates in the presence of 90 μl PDB culture medium supplemented with tetracycline (100 μg/ml) and cefotaxime (1 μg/ml) containing the spores (at a final concentration of 1000 spores/well). Control cultures were systematically made in which 10 μl of sample were replaced by 10 μl of sterile water. Media sterility was controlled by incubating 10 μl sterile water in the presence of 90 μl of medium. The samples were incubated at 37° C. for 24 h to 48 h in a humid atmosphere, and the antifungal activity was quantified by a score of 0 to 9 taking germination account; the size and morphology of the hyphs were determined under the binocular microscope. […].

[1] = tested on: Candida albicans (IHEM 8060 strain); assay: Candida albicans infected model, lethal in mice (disseminated candidiasis); assay type: in vivo; conditions: for time of onset of the 1st death: placebo day 2.5
Procedure: Heliomycin and its analogues were tested for in vivo antifungal activity in a model infected with Candida albicans, lethal in mice. The pathogenic agent Candida albicans (IHEM 8060 strain) was inoculated by intravenous route (i.v.) at a dose of 2.5×10^6 CFU/mouse. the peptides were administered by i.v. route in 4 injections 6 h, 24 h, 48 h and 72 h after infection. Assessment criteria for activity were evaluation of survival and morbidity at 7 days. The morbidity scores, which take into account general state of health (condition of fur, mobility, hydration) were determined for each mouse with values ranging from 0 to 5 and defined below: 0=dead, 1=moribund, 2=very ill, 3=ill, 4=slightly ill, 5=healthy. The sum of the individual scores was calculated for each group, a score of 50 for a group of 10 mice meaning that all the mice were healthy.
Following a standard protocol, groups of 10 Swiss OF1 male mice weighing 12 g were infected via i.v. route with a dose of 2.5×10^6 CFU/mouse. Heliomycin and Ard1 were administered by i.v. route in 4 injections, 6 h, 24 h, 48 h and 72 h after infection. For each peptide, 2 doses were tested: 10 mg/kg and 30 mg/kg. A placebo group was injected with peptide solvent, 0.9% sodium chloride.
In this experiment, inoculation of the mice with 2.5.10^6 CFU/mouse was 50% lethal at day 5 in the group which received placebo treatment. The first deaths occurred on post-infection day 2.5 and median mortality occurred on post-infection day 5. On day 7, 5 mice were alive and the morbidity score 15/50.
In this experiment, inoculation of Swiss OF1 mice weighing 15 g with 3.10^6 CFU of Candida albicans induces 50% mortality on day 4 after infection in the group treated with the placebo. The first deaths occur 2.5 days after infection, and 100% of the mice were dead on day 5.5.
In this experiment, inoculation of the mice with 2.5.10^6 CFU/mouse was 50% lethal at day 5 and 100% at day 8 for mice in the placebo group. The first death occurred 3 days after infection. The morbidity score fell rapidly below 30/50 (25/50 at day 2.5).
The pEM35 peptide was administered at doses of 10 and 30 mg/kg/injection with 3 daily doses for 4 days (1 h, 5 h and 10 h post-infection on day 0; at 8 h, 14 h and 20 h on days 1, 2 and 3), i.e., daily doses totalling 30 and 90 mg/kg.

A. fumigatus = assay type: cell-based
Procedure: (§2) The antifungal activity was detected by a growth inhibition test in a liquid medium.
(§3) The filamentous fungi (A. fumigatus, A. flavus and A. terreus, donated by Dr. H. Koenig, Hôpital Civil, Strasbourg; and S. prolificans and F. solani donated by Drs. J. Meis and J. Mouton, University hospital, Microbioolgy Department, Nijmegen, Netherlands) were seeded on Malt-Agar slant gelose (Biomerieux) and incubated 7 days at 37° C.
(§4) The spores were then collected with 10 ml YPG medium containing 0.05% Tween 20 and filtered through a gauze. The spores were centrifuged 10 min at 1700 rpm, the residue was collected in YPG (1 g Yeast extract, 1 g Peptone, 3 g Glucose per 1 l).
(§5) The suspension was counted with a Coverslide and adjusted to 10^4 spores/ml.
(§6) 100 μl of peptide dilutions (concentration of 50 with 0.097 μg/ml peptide) were deposited in microtitration plates. 100 μl with 10^4 spores/ml of filamentous fungi, i.e. 1000 spores, were then added.
(§7) The test plates were incubated 48 h at 37° C.
(§8) Determination of minimum inhibiting concentrations (MIC) was made by observing well cover rate. The MIC score was set at 50% well covering.

[2] = tested on: fluconazole-resistant C. albicans; assay: microbe, parasite or virus in culture; assay type: cell-based, Candida albicans
Procedure: (§9) Candida yeasts (C. albicans, C. glabrata, C. dubliensis, C. tropicalis, C. kefyr, C. krusei and C. parapsilosis—donated by Dr. H. Koenig, Hôpital Civil, Strasbourg), fluconazole-resistant C. albicans (n^o245962, n^o2332, n^o246335 and n^o3552, donated by Drs. J.Meis and J. Mouton, University Hospital, Microbiology Department, Nijmegen, Netherlands), and Cryptoccocus neoformans (donated by Dr. H. Koenig, Hôpital Civil, Strasbourg) were seeded on Sabouraud-Cloramphenicol Agar slant gelose (Biomerieux) and left to incubate for 24 h at 30° C. (Candida sp.) and for 72 h at 37° C. (Cryptoccocus neoformans).
(§10) Some yeast colonies were placed in suspension in liquid Sabouraud medium (Biomerieux) to obtain a final concentration of 0.1 OD at 600 nm corresponding to 2.5.10^6 yeasts/ml.
(§11) The yeast suspension was adjusted to 5.10^3 yeast/ml in Sabouraud medium.
(§12) 100 μl of peptide dilutions (concentration of 50 with 0.097 μg/ml peptide) were deposited in microtitration plates. After adding […] of yeast suspension with 5.10^3 yeast/ml i.e. 500 yeasts, the test plates were incubated 24 h at 30° C. (Candida) under slow shaking or 72 h at 37° C. (Cryptoccocus).
(§13) Determination of minimal inhibiting concentrations (MIC) was made by measuring absorbency at 600 nm using a spectrophotometer-microtitration plate reader. The MIC score was set at a growth inhibition rate of 50%.

F. solani = assay: Test to detect activity against filamentous fungi (MIC); assay type: cell-based; conditions: F. solani FFUS 8591
Procedure: as §2, §3, §4, §5, §6, §7, §8

S. prolificans = assay: as above; assay type: cell-based
Procedure: as §2, §3, §4, §5, §6, §7, §8

C. glabrata = assay type: cell-based
Procedure: as §9, §10, §11, §12, §13

C. kefyr = assay type: cell-based
Procedure: as §9, §10, §11, §12, §13

C. krusei = assay type: cell-based
Procedure: as §9, §10, §11, §12, §13

Alternaria brassicola = assay type: cell-based; conditions: 48 h
Procedure: (§14) 100 μl of peptide dilutions (concentration 50 with 0.097 mg/ml peptide) were deposited in microtitration plates.
(§15) After adding 100 μl of frozen spores with 10^4 spores/ml of A. brassicola and N. crassa (donated by Dr. Bullet, IBMC, Strasbourg) the test plates were incubated 48 h at 30° C.
(§16) Determination of minimal inhibiting concentrations (MIC) was made by observing well cover rate. The MIC was set at 50% well covering.

Neurospora crassa = assay type: cell-based; conditions: 48 h
Procedure: as §14, §15, §16

C. albicans = assay type: cell-based, Candida albicans; conditions: 24 h
Procedure: as §9, §10, §11, §12, §13

C. parapsilosis = assay type: cell-based
Procedure: as §9, §10, §11, §12, §13

C. tropicalis = assay type: cell-based
Procedure: as §9, §10, §11, §12, §13

[3] = FIGS. 4-5, 10 mg/kg, placebo 5 alive
[4] = fluconazole-resistant C. albicans n° 2332
[5] = fluconazole-resistant C. albicans n° 245962
[6] = fluconazole-resistant C. albicans n° 246335
[7] = FIGS. 2-3, 10 mg/kg i.v., 4 injections

Row | Molecule | Activity C.a. (relative activity in relation to Ard1) (Candida albicans) | Activity A.f. (relative activity in relation to Ard1) (Aspergillus fumigatus) | activity compared with Ard1 ([1]; FIGS. 4-5, 10 mg/kg) | mice alive on day 7 (out of 10) [1, 3] | time of onset of the 1st death ([1]; FIGS. 4-5, 10 mg/kg) | MIC [2, 4] | MIC [2, 5] | MIC [2, 6] | Activity A.f. (relative activity in relation to heliomycin) (Aspergillus fumigatus) | MIC (C. glabrata) | MIC (C. kefyr) | MIC (C. krusei) | MIC (Alternaria brassicola) | MIC (Neurospora crassa) | other results
1 | DKLIGSCVWGAVNYTSNCNAECKRRGYKGGHCGSFANVNCWCER [pEM30, peptide derived from Ard1] | 4 | 0.5-1 | more active than Ard1 | 7 mice | 4 days |  |  |  |  |  |  |  |  |  | 
2 | C[C@@H]1[C@H](O)[C@@H](C)/C=C/C=C/C=C/C=C/C=C/C=C/C=C/[C@H](O[C@@H]2O[C@H](C)[C@@H](O)[C@H](N)[C@@H]2O)C[C@@H]2O[C@](O)(C[C@@H](O)C[C@@H](O)[C@H](O)CC[C@@H](O)C[C@@H](O)CC(=O)O[C@H]1C)C[C@H](O)[C@H]2C(=O)O [ampho B, Amphotericin B] |  |  |  |  |  | 0.25 µg/mL (≈ 0.271 µM) | 0.125 µg/mL (≈ 0.135 µM) | 0.0625 µg/mL (≈ 0.0676 µM) |  |  |  |  |  |  | MIC (A. fumigatus; A. fumigatus FASF 5161): 0.5 µg/mL (≈ 0.541 µM); MIC (F. solani): > 16 µg/mL; MIC (S. prolificans; S. prolificans FSSP 7902): > 16 µg/mL; MIC (S. prolificans; S. prolificans FSSP 7908): > 16 µg/mL
3 | DKLIGSCVWGAVNYTSDCNGECKRRGYKGGHCGSFLNINCWCET [pEM24, peptide derived from heliomycin] |  |  | more active than Ard1 | 7 mice | 3 days |  |  |  | 8 |  |  |  |  |  | Activity C.a. (relative activity in relation to heliomycin) (Candida albicans; fold relative to heliomycin): 4
4 | OC(Cn1cncn1)(Cn1cncn1)c1ccc(F)cc1F [fluconazole] |  |  |  |  |  | > at 64 μg/ml | > at 64 μg/ml | > at 64 μg/ml |  |  |  |  |  |  | MIC ([2]; Candida albicans, fluconazole-resistant C. albicans n° 3552, read-out: MIC): > 64 µg/mL
5 | DKLIGSCVWGAVNYTSNCNAECKRRGYKGGHCGSFANVNCWCET (disulfide 7-32, 18-40, 22-42 (inferred)) [Ard1] |  |  |  | 8 mice |  |  |  |  | 2 | >25 µg/mL | >25 µg/mL | 3.125 µg/mL | >25 µg/mL | 0.097 µg/mL | effect on survival and general condition of the mice [1, 7]: did not make it possible to improve survival; time after infection at which 50% of mice were dead [1, 7]: 2 days; mice alive on day 7 (out of 10) ([1]; FIGS. 2-3, 30 mg/kg i.v., 4 injections): 5 mice; morbidity score at day 7 ([1]; FIGS. 2-3, 30 mg/kg i.v., 4 injections, 50 = all 10 mice healthy): 16/50; delay of onset of the first death ([1]; FIGS. 2-3, 30 mg/kg i.v., 4 injections, vs placebo): 24 h; delay of onset of the first death ([1]; FIGS. 4-5, 2.5.10^6 CFU/mouse, 10 mg/kg, placebo first deaths day 2.5): 36 h; effect on mouse survival relative to placebo treatment ([1]; FIGS. 6-7, 3.10^6 CFU, 5 mg/kg, three i.v. injections, 10 mice of 15 g): does not significantly increase mouse survival; effectiveness in the candidiasis infected model ([1]; FIGS. 6-7, dose 5 mg/kg): not effective; MIC (A. fumigatus; 48 h): 12.5 µg/mL
6 | DKLIGSCVWGAVNYTSNCNAECKRRGYKGGHCGSFLNVNCWCER (disulfide 7-32, 18-40, 22-42 (inferred)) [pEM48] | 6-12 | 1-2 |  |  |  |  |  |  |  | >25 µg/mL | 25 µg/mL | 1.56 µg/mL | 12.5 µg/mL | 0.39 µg/mL | MIC (C. albicans): 1.56 µg/mL; MIC (C. parapsilosis): 0.78 µg/mL; MIC (C. tropicalis): 3.125 µg/mL
